In ChEMBL document CHEMBL1201862, “PubChem BioAssay data set” (2004):
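Briefly, cells in 96-well plates were exposed to five compound concentrations for 48 h, and endpoints were estimated by linear interpolation. Here, GI50 denotes the concentration required for 50% inhibition of growth.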 Activity calls are given as the source filed them. Cut-off read from the data, not from the text of the source: active = GI50 up to about 1.1 µM and inactive = higher.

Key:
Assay in all cases: NCI tumour cell line growth inhibition, 48 h
A549 = tested on: A549
CCRF-CEM = tested on: CCRF-CEM
HCC 2998 = tested on: HCC 2998
IGROV-1 = tested on: IGROV-1
K562 = tested on: K562
KM12 = tested on: KM12
M14 = tested on: M14
Malme-3M = tested on: Malme-3M
NCI-H522 = tested on: NCI-H522
NCI/ADR-RES = tested on: NCI/ADR-RES
OVCAR-8 = tested on: OVCAR-8
PC-3 = tested on: PC-3
RXF 393 = tested on: RXF 393
SF-268 = tested on: SF-268
SK-MEL-28 = tested on: SK-MEL-28
SN12C = tested on: SN12C
SNB-19 = tested on: SNB-19
U-251 = tested on: U-251
UO-31 = tested on: UO-31
Hs-578T = tested on: Hs-578T

Compound | GI50 (A549) | GI50 (CCRF-CEM) | GI50 (HCC 2998) | GI50 (IGROV-1) | GI50 (K562) | GI50 (KM12) | GI50 (M14) | GI50 (Malme-3M) | GI50 (NCI-H522) | GI50 (NCI/ADR-RES) | GI50 (OVCAR-8) | GI50 (PC-3) | GI50 (RXF 393) | GI50 (SF-268) | GI50 (SK-MEL-28) | GI50 (SN12C) | GI50 (SNB-19) | GI50 (U-251) | GI50 (UO-31) | GI50 (Hs-578T)
CC1=NN(C(=O)c2ccccc2O)C(=O)/C1=C/c1ccccc1O | 0.157 µM (active) | 0.164 µM (active) | 3.21 µM (inactive) | 0.0577 µM (active) | 0.0914 µM (active) | 2.76 µM (inactive) | 1.55 µM (inactive) | 0.766 µM (active) | 0.497 µM (active) | 0.558 µM (active) | 0.557 µM (active) | 1.35 µM (inactive) | 0.0986 µM (active) | 0.445 µM (active) | 18.5 µM (inactive) | 0.579 µM (active) | 0.124 µM (active) | 0.114 µM (active) | 0.0634 µM (active) | 
c1ccc2c[n+](CCCC[n+]3ccc4ccccc4c3)ccc2c1 | 1.13 µM (inactive) | > 100 µM (inactive) | > 100 µM (inactive) | > 100 µM (inactive) | > 100 µM (inactive) | > 100 µM (inactive) | 1.12 µM (active) |  |  | > 100 µM (inactive) | > 100 µM (inactive) | > 100 µM (inactive) | > 100 µM (inactive) | > 100 µM (inactive) | > 100 µM (inactive) | > 100 µM (inactive) | 21.8 µM (inactive) | > 100 µM (inactive) |  | 
O=CC1=C(C(=O)OC(c2ccccc2)c2ccccc2)N2C(=O)[C@@H](NC(=O)Cc3cccs3)[C@H]2SC1 | > 100 µM (inactive) | 57.3 µM (inactive) | > 100 µM (inactive) | > 100 µM (inactive) | > 100 µM (inactive) | 91.2 µM (inactive) | > 100 µM (inactive) | > 100 µM (inactive) | 64.3 µM (inactive) | > 100 µM (inactive) | > 100 µM (inactive) | > 100 µM (inactive) | > 100 µM (inactive) |  |  | > 100 µM (inactive) |  | > 100 µM (inactive) | 40 µM (inactive) | 
CC1(C)[C@@H]2CC[C@@]1(C)[C@H](O)[C@@H]2SCc1ccccc1 | 19 µM (inactive) | 19 µM (inactive) | 19.5 µM (inactive) | 18.7 µM (inactive) | 25.2 µM (inactive) | 17.8 µM (inactive) | 15 µM (inactive) |  | 15.2 µM (inactive) | 15.8 µM (inactive) | 19.1 µM (inactive) | 20.8 µM (inactive) | 18.5 µM (inactive) | 17.3 µM (inactive) | 17.5 µM (inactive) | 17.8 µM (inactive) | 16.8 µM (inactive) | 17.1 µM (inactive) | 21 µM (inactive) | 14.2 µM (inactive)
O=c1ccn(C2OC(CO)C(P(=O)(O)O)C2O)c(=O)[nH]1 (configuration not stated) | > 100 µM (inactive) | > 100 µM (inactive) | > 100 µM (inactive) | > 100 µM (inactive) | > 100 µM (inactive) | > 100 µM (inactive) | > 100 µM (inactive) | > 100 µM (inactive) | > 100 µM (inactive) |  | > 100 µM (inactive) | > 100 µM (inactive) | > 100 µM (inactive) | > 100 µM (inactive) | > 100 µM (inactive) | > 100 µM (inactive) | > 100 µM (inactive) | > 100 µM (inactive) | > 100 µM (inactive) | > 100 µM (inactive)
CC(=O)Oc1cc(Cl)c(C)c2c1[C@H]1CC[C@]3(C)[C@@H](OC(C)=O)CC[C@H]3[C@@H]1CC2 | > 100 µM (inactive) | > 100 µM (inactive) | > 100 µM (inactive) | > 100 µM (inactive) | 78.5 µM (inactive) | > 100 µM (inactive) | > 100 µM (inactive) | > 100 µM (inactive) | > 100 µM (inactive) | > 100 µM (inactive) | > 100 µM (inactive) |  | 74.8 µM (inactive) | > 100 µM (inactive) | > 100 µM (inactive) | > 100 µM (inactive) | > 100 µM (inactive) | 94.2 µM (inactive) | > 100 µM (inactive) | > 100 µM (inactive)
O=C(/C=C/c1ccccc1)CCC1C(=O)NC(=S)NC1=O | > 100 µM (inactive) |  | > 100 µM (inactive) |  | > 100 µM (inactive) |  | > 100 µM (inactive) |  |  | > 100 µM (inactive) | > 100 µM (inactive) | > 100 µM (inactive) | > 100 µM (inactive) | > 100 µM (inactive) | > 100 µM (inactive) | > 100 µM (inactive) | > 100 µM (inactive) | > 100 µM (inactive) | > 100 µM (inactive) | > 100 µM (inactive)
Cc1c(C)c2c(c(N)c1C#N)C(=O)N(Cc1ccc(S(N)(=O)=O)cc1)C2=O | > 58.6 µM (inactive) | > 100 µM (inactive) | > 100 µM (inactive) | > 38.4 µM (inactive) | > 100 µM (inactive) | > 100 µM (inactive) | 25.9 µM (inactive) | 20.5 µM (inactive) |  | > 57.9 µM (inactive) | 4.65 µM (inactive) | > 64 µM (inactive) | 7.46 µM (inactive) | 16.5 µM (inactive) | > 100 µM (inactive) | > 53.8 µM (inactive) | 5.51 µM (inactive) | 7.18 µM (inactive) | 97.9 µM (inactive) | > 46.3 µM (inactive)
